One data set concerns Rtkn-GFP. The experiment in a line: ToxTracker genotoxicity assay, Rtkn-GFP reporter induction. Conditions: for Genotoxicity test, With S9 rat liver extract, Rtkn, 10 / Genotoxicity test, Without S9 rat liver extract, Rtkn, 10: GFP induction vs vehicle at 10% cytotoxicity; for Genotoxicity test, With S9 rat liver extract, Rtkn, 10 / Genotoxicity test, With S9 rat liver extract, Rtkn, 25 / Genotoxicity test, With S9 rat liver extract, Rtkn, 50: 3 h exposure with S9, 24 h recovery; for Genotoxicity test, Without S9 rat liver extract, Rtkn, 10 / Genotoxicity test, Without S9 rat liver extract, Rtkn, 25 / Genotoxicity test, Without S9 rat liver extract, Rtkn, 50: 24 h exposure, no S9; for Genotoxicity test, With S9 rat liver extract, Rtkn, 25 / Genotoxicity test, Without S9 rat liver extract, Rtkn, 25: GFP induction vs vehicle at 25% cytotoxicity; for Genotoxicity test, With S9 rat liver extract, Rtkn, 50 / Genotoxicity test, Without S9 rat liver extract, Rtkn, 50: GFP induction vs vehicle at 50% cytotoxicity; for Genotoxicity test, Rtkn induction level: fold induction.

Another data set concerns Bscl2-GFP. The experiment in a line: ToxTracker genotoxicity assay, Bscl2-GFP reporter induction. Conditions: for Genotoxicity test, With S9 rat liver extract, Bscl 2, 10 / Genotoxicity test, Without S9 rat liver extract, Bscl 2, 10: GFP induction vs vehicle at 10% cytotoxicity; for Genotoxicity test, With S9 rat liver extract, Bscl 2, 10 / Genotoxicity test, With S9 rat liver extract, Bscl 2, 25 / Genotoxicity test, With S9 rat liver extract, Bscl 2, 50: 3 h exposure with S9, 24 h recovery; for Genotoxicity test, Without S9 rat liver extract, Bscl 2, 10 / Genotoxicity test, Without S9 rat liver extract, Bscl 2, 25 / Genotoxicity test, Without S9 rat liver extract, Bscl 2, 50: 24 h exposure, no S9; for Genotoxicity test, With S9 rat liver extract, Bscl 2, 25 / Genotoxicity test, Without S9 rat liver extract, Bscl 2, 25: GFP induction vs vehicle at 25% cytotoxicity; for Genotoxicity test, With S9 rat liver extract, Bscl 2, 50 / Genotoxicity test, Without S9 rat liver extract, Bscl 2, 50: GFP induction vs vehicle at 50% cytotoxicity; for Genotoxicity test, Bscl 2 induction level: fold induction.

Where [1] appears, read: with S9 rat liver extract, concentration 10 (10% cytotoxicity).
Where [2] appears, read: with S9 rat liver extract, concentration 25 (25% cytotoxicity).
Where [3] appears, read: with S9 rat liver extract, concentration 50 (50% cytotoxicity).
The mark [4] stands for this setting: without S9 rat liver extract, concentration 10 (10% cytotoxicity).
The mark [5] stands for this setting: without S9 rat liver extract, concentration 25 (25% cytotoxicity).
The mark [6] stands for this setting: without S9 rat liver extract, concentration 50 (50% cytotoxicity).

Each structure is given as a SMILES string.

Consider `CCCCOCC(CN1CC1C)OC(=O)NC(C)(C)c1cccc(C(C)(C)NC(=O)OC(COCCCC)CN2CC2C)c1` (stereo not drawn) [Ex. 11], for which, in the data set with Rtkn-GFP, the “Genotoxicity test, With S9 rat liver extract, Rtkn, 10” value turned out to be 1.3 fold; the “Genotoxicity test, Without S9 rat liver extract, Rtkn, 10” value is given as 1.1 fold; the “Genotoxicity test, With S9 rat liver extract, Rtkn, 25” value is given as 1.3 fold; the “Genotoxicity test, Without S9 rat liver extract, Rtkn, 25” value came to 1.3 fold. In the data set on Rtkn-GFP, the “Genotoxicity test, With S9 rat liver extract, Rtkn, 50” value is 1.1 fold and the “Genotoxicity test, Without S9 rat liver extract, Rtkn, 50” value was determined as 1.3 fold. Besides, in the data set with Bscl2-GFP, the “Genotoxicity test, With S9 rat liver extract, Bscl 2, 10” value was 1.2 fold; the “Genotoxicity test, Without S9 rat liver extract, Bscl 2, 10” value was found to be 1.1 fold; the “Genotoxicity test, With S9 rat liver extract, Bscl 2, 25” value is reported as 1.3 fold; the “Genotoxicity test, Without S9 rat liver extract, Bscl 2, 25” value amounted to 1.3 fold. Also, in the data set on Bscl2-GFP, the “Genotoxicity test, With S9 rat liver extract, Bscl 2, 50” value is recorded as 1.3 fold and the “Genotoxicity test, Without S9 rat liver extract, Bscl 2, 50” value was 1.3 fold.

`C=CCOCC(CN1CC1C)OC(=O)NCCCCCCn1c(=O)n(CCCCCCNC(=O)OC(COCC=C)CN2CC2C)c(=O)n(CCCCCCNC(=O)OC(COCC=C)CN2CC2C)c1=O` (stereo not drawn) [Ex. 9]: in the data set on Rtkn-GFP, the “Genotoxicity test, With S9 rat liver extract, Rtkn, 10” value is 1.1 fold; the “Genotoxicity test, Without S9 rat liver extract, Rtkn, 10” value was 1.0 fold; the “Genotoxicity test, With S9 rat liver extract, Rtkn, 25” value is given as 1.1 fold; the “Genotoxicity test, Without S9 rat liver extract, Rtkn, 25” value is 1.1 fold. In the data set with Rtkn-GFP, the “Genotoxicity test, With S9 rat liver extract, Rtkn, 50” value is recorded as 1.2 fold and the “Genotoxicity test, Without S9 rat liver extract, Rtkn, 50” value is 1.1 fold. Also, in the data set on Bscl2-GFP, the “Genotoxicity test, With S9 rat liver extract, Bscl 2, 10” value is 1.2 fold; the “Genotoxicity test, Without S9 rat liver extract, Bscl 2, 10” value worked out at 1.1 fold; the “Genotoxicity test, With S9 rat liver extract, Bscl 2, 25” value stood at 1.2 fold; the “Genotoxicity test, Without S9 rat liver extract, Bscl 2, 25” value is 1.2 fold. In addition, in the data set on Bscl2-GFP, the “Genotoxicity test, With S9 rat liver extract, Bscl 2, 50” value turned out to be 1.2 fold and the “Genotoxicity test, Without S9 rat liver extract, Bscl 2, 50” value came out at 1.2 fold.

As for `CCCCOCC(CN1CC1C)OC(=O)Nc1ccc(C)c(NC(=O)OC(COCCCC)CN2CC2C)c1` (stereo not drawn) [Comp. Ex. 11, reference compound], in the data set with Rtkn-GFP, the “Genotoxicity test, With S9 rat liver extract, Rtkn, 10” value came out at 1.2 fold; the “Genotoxicity test, Without S9 rat liver extract, Rtkn, 10” value is listed as 1.3 fold; the “Genotoxicity test, With S9 rat liver extract, Rtkn, 25” value was found to be 2.1 fold; the “Genotoxicity test, Without S9 rat liver extract, Rtkn, 25” value worked out at 2.1 fold. Moreover, in the data set with Rtkn-GFP, the “Genotoxicity test, With S9 rat liver extract, Rtkn, 50” value is 2.5 fold and the “Genotoxicity test, Without S9 rat liver extract, Rtkn, 50” value was found to be 2.3 fold. In addition, in the data set with Bscl2-GFP, the “Genotoxicity test, With S9 rat liver extract, Bscl 2, 10” value is recorded as 1.3 fold; the “Genotoxicity test, Without S9 rat liver extract, Bscl 2, 10” value is on record as 1.2 fold; the “Genotoxicity test, With S9 rat liver extract, Bscl 2, 25” value worked out at 1.7 fold; the “Genotoxicity test, Without S9 rat liver extract, Bscl 2, 25” value was 1.6 fold. For the same compound, in the data set on Bscl2-GFP, the “Genotoxicity test, With S9 rat liver extract, Bscl 2, 50” value is recorded as 1.6 fold and the “Genotoxicity test, Without S9 rat liver extract, Bscl 2, 50” value is reported as 1.9 fold.

For the compound `Cc1ccccc1OCC(CN1CC1C)OC(=O)NCCCCCCn1c(=O)n(CCCCCCNC(=O)OC(COc2ccccc2C)CN2CC2C)c(=O)n(CCCCCCNC(=O)OC(COc2ccccc2C)CN2CC2C)c1=O` (stereo not drawn) [Ex. 21], in the data set on Rtkn-GFP, the “Genotoxicity test, With S9 rat liver extract, Rtkn, 10” value is 1.2 fold; the “Genotoxicity test, Without S9 rat liver extract, Rtkn, 10” value is 1.2 fold; the “Genotoxicity test, With S9 rat liver extract, Rtkn, 25” value is 1.4 fold; the “Genotoxicity test, Without S9 rat liver extract, Rtkn, 25” value stood at 1.3 fold. In addition, in the data set with Rtkn-GFP, the “Genotoxicity test, With S9 rat liver extract, Rtkn, 50” value came to 1.5 fold and the “Genotoxicity test, Without S9 rat liver extract, Rtkn, 50” value came to 1.5 fold. Moreover, in the data set with Bscl2-GFP, the “Genotoxicity test, With S9 rat liver extract, Bscl 2, 10” value is recorded as 1.0 fold; the “Genotoxicity test, Without S9 rat liver extract, Bscl 2, 10” value is given as 1.1 fold; the “Genotoxicity test, With S9 rat liver extract, Bscl 2, 25” value is listed as 1.3 fold; the “Genotoxicity test, Without S9 rat liver extract, Bscl 2, 25” value is recorded as 1.2 fold. Also, in the data set with Bscl2-GFP, the “Genotoxicity test, With S9 rat liver extract, Bscl 2, 50” value is reported as 1.4 fold and the “Genotoxicity test, Without S9 rat liver extract, Bscl 2, 50” value was 1.6 fold.

Consider `CC(CN1CC1C)OC(=O)NCCCCCCNC(=O)OC(C)CN1CC1C` (stereo not drawn) [Comp. Ex. 6, reference compound], for which, in the data set with Rtkn-GFP, the “Genotoxicity test, With S9 rat liver extract, Rtkn, 10” value was 2.2 fold; the “Genotoxicity test, Without S9 rat liver extract, Rtkn, 10” value amounted to 2.1 fold; the “Genotoxicity test, With S9 rat liver extract, Rtkn, 25” value amounted to 3.4 fold; the “Genotoxicity test, Without S9 rat liver extract, Rtkn, 25” value is reported as 3.1 fold. Further, in the data set with Rtkn-GFP, the “Genotoxicity test, With S9 rat liver extract, Rtkn, 50” value came out at 2.1 fold and the “Genotoxicity test, Without S9 rat liver extract, Rtkn, 50” value is 3.1 fold. In addition, in the data set on Bscl2-GFP, the “Genotoxicity test, With S9 rat liver extract, Bscl 2, 10” value worked out at 1.4 fold; the “Genotoxicity test, Without S9 rat liver extract, Bscl 2, 10” value stood at 1.4 fold; the “Genotoxicity test, With S9 rat liver extract, Bscl 2, 25” value amounted to 2.1 fold; the “Genotoxicity test, Without S9 rat liver extract, Bscl 2, 25” value is 2.0 fold. In addition, in the data set on Bscl2-GFP, the “Genotoxicity test, With S9 rat liver extract, Bscl 2, 50” value is recorded as 2.3 fold and the “Genotoxicity test, Without S9 rat liver extract, Bscl 2, 50” value is reported as 2.0 fold.

Take `COCCOCCOCCOCCOCCOCCOCCOCCOCCOCCOCCOCCOCCOCCOCCOCCOCCOCCOCCOCCOCCOCCOCCOCCOCCOCC(CN1CC1C)OC(=O)NCCCCCCn1c(=O)n(CCCCCCNC(=O)OC(COCCOCCOCCOCCOCCOCCOCCOCCOCCOCCOCCOCCOCCOCCOCCOCCOCCOCCOCCOCCOCCOCCOCCOCCOCCOC)CN2CC2C)c(=O)n(CCCCCCNC(=O)OC(COCCOCCOCCOCCOCCOCCOCCOCCOCCOCCOCCOCCOCCOCCOCCOCCOCCOCCOCCOCCOCCOCCOCCOCCOCCOC)CN2CC2C)c1=O` (stereo not drawn) [Ex. 30]: the “Genotoxicity test, Rtkn induction level” value in the data set with Rtkn-GFP (setting [1]) worked out at 0.8; with Rtkn-GFP (setting [2]), 0.9; in the data set with Rtkn-GFP (setting [3]) it was 1.0; with Rtkn-GFP (setting [4]), 0.9; with Rtkn-GFP (setting [5]) it was 0.9; with Rtkn-GFP (setting [6]) it was 1.0. Besides, the “Genotoxicity test, Bscl 2 induction level” value with Bscl2-GFP (setting [1]) turned out to be 1.0; with Bscl2-GFP (setting [2]), 1.5; in the data set on Bscl2-GFP (setting [3]), 1.8; in the data set on Bscl2-GFP (setting [4]), 1.0; in the data set with Bscl2-GFP (setting [5]), 1.3; with Bscl2-GFP (setting [6]) it was 1.6.

Turning to `COCCOCCOCCOCCOCCOCCOCCOCCOCCOCCOCCOCCOCCOCC(CN1CC1C)OC(=O)NCCCCCCn1c(=O)n(CCCCCCNC(=O)OC(COCCOCCOCCOCCOCCOCCOCCOCCOCCOCCOCCOCCOCCOC)CN2CC2C)c(=O)n(CCCCCCNC(=O)OC(COCCOCCOCCOCCOCCOCCOCCOCCOCCOCCOCCOCCOCCOC)CN2CC2C)c1=O` (stereo not drawn) [Ex. 29], in the data set on Rtkn-GFP, the “Genotoxicity test, With S9 rat liver extract, Rtkn, 10” value worked out at 1.1 fold; the “Genotoxicity test, Without S9 rat liver extract, Rtkn, 10” value is 1.0 fold; the “Genotoxicity test, With S9 rat liver extract, Rtkn, 25” value was 1.1 fold; the “Genotoxicity test, Without S9 rat liver extract, Rtkn, 25” value is on record as 1.1 fold. For the same compound, in the data set on Rtkn-GFP, the “Genotoxicity test, With S9 rat liver extract, Rtkn, 50” value came to 1.1 fold and the “Genotoxicity test, Without S9 rat liver extract, Rtkn, 50” value was 1.1 fold. In the data set with Bscl2-GFP, the “Genotoxicity test, With S9 rat liver extract, Bscl 2, 10” value is 1.1 fold; the “Genotoxicity test, Without S9 rat liver extract, Bscl 2, 10” value is reported as 1.1 fold; the “Genotoxicity test, With S9 rat liver extract, Bscl 2, 25” value is 1.1 fold; the “Genotoxicity test, Without S9 rat liver extract, Bscl 2, 25” value stood at 1.4 fold. For the same compound, in the data set on Bscl2-GFP, the “Genotoxicity test, With S9 rat liver extract, Bscl 2, 50” value came out at 1.1 fold and the “Genotoxicity test, Without S9 rat liver extract, Bscl 2, 50” value is recorded as 1.4 fold.

These data come from patent US12180194B2, “Multi-aziridine compound” (Covestro (Netherlands) B.V., priority 2018, dated 2024).
